Measured values as given in paper PMC8842277, “Highly Antiproliferative Latonduine and Indolo[2,3-c]quinoline Derivatives: Complex Formation with Copper(II) Markedly Changes the Kinase Inhibitory Profile” (Journal of Medicinal Chemistry, 2022).
Like-named read-outs stand apart in the source and are kept apart here.

Assays:
[1] = Proton dissociation constants by UV–vis titration; type: physicochemical; details: 30–70% (w/w) DMSO–water; for pKa: DMSO:water 30:70 (w/w) solvent mixture
Procedure: The protonation processes of HL^1nm and its morpholine counterpart HL^1 (Chart 3) and the solution stability of their copper(II) complexes (1nm and 1) were characterized by UV–vis spectrophotometry. […] Based on the characteristic changes in the UV–vis spectra for HL^1nm in the pH range 2–6 (Figure 3a), two relatively well-separated proton dissociation processes were observed and their pKa values were determined (Table 1).
(§1) An Agilent Carry 8454 diode array spectrophotometer was used to record the UV–visible (UV–vis) spectra in the interval 200–800 nm. The path length was 2 or 0.5 cm. Spectrophotometric titrations were performed on samples containing the proligands HL^1, HL^1nm, or their copper(II) complexes (1 and 1nm; see Chart 2) by a KOH solution in the presence of 0.1 M KCl in a DMSO:water 30:70 (w/w) mixture as a solvent at 25.0 ± 0.1 °C in the pH range from 2 to 11. […] An Orion 710A pH meter equipped with a Metrohm combined electrode (type 6.0234.100) and a Metrohm 665 Dosimat burette were used for the pH measurements and titrations. […] The average water ionization constant (pKw) is 14.52 ± 0.05, which corresponds well to the literature data.[103] Argon was passed over the solutions during the titrations. Proton dissociation constants (pKa) of the ligand, overall stability constants (log β) of the copper(II) complexes, and the individual spectra of the various species present in the solution were calculated by the computer program PSEQUAD.[104] β (MpLqHr) is defined for the general equilibrium pM + qL + rH MpLqHr as β (MpLqHr) = [MpLqHr]/[M]^p[L]^q[H]^r where M denotes the copper(II) ion and L the completely deprotonated ligand. The calculations were always made from the experimental titration data measured in the absence of any precipitate in the solution.

[2] = Overall stability constants of copper(II) complexes by UV–vis titration; type: physicochemical; details: 30–70% (w/w) DMSO–water, 298 K, I = 0.10 M (KCl)
Description: The tridentate coordination via the N,N,N donor set is assumed in [Cu(HL^1nm)]^2+ at such low pH. […] The deprotonation of the non-coordinating hydrazonic nitrogen is likely, and complex [Cu(L^1nm)]^+ is formed. […] However, the absorbance is decreased in the whole wavelength range due to precipitate formation. By the deconvolution of the recorded UV–vis spectra, overall stability constants for the complexes [Cu(HL^1nm)]^2+ and [Cu(L^1nm)]^+ were computed, and log β for [Cu(L^1nm)(OH)] was only estimated (Table 1). In the case of the morpholine hybrid, a somewhat different speciation was obtained as the presence of the pendant morpholine moiety had to be taken into consideration. Log β values for [CuH(HL^1)]^3+, [CuH(L^1)]^2+, and [Cu(L^1)]^+ were computed from the spectrophotometric titration data (Table 1). Since the molar absorbance spectra of [CuH(HL^1)]^3+ and [CuH(L^1)]^2+ complexes resemble those of [Cu(HL^1nm)]^2+ and [Cu(L^1nm)]^+ (Figure 4b), the same coordination modes are likely in these species in couples. […] Increasing the pH (pH > 5), the absorbance is decreased in the whole wavelength range, no isosbestic points are found (indicating the formation of some precipitate), while the λmax is increased. Formation of a mixed hydroxido species [CuH(L^1)(OH)]^+ is also possible. However, the deprotonation of the morpholinium group can take place as well (formation of [Cu(L^1)]^+) in this pH range. As these two processes are overlapping, the two species could not be well distinguished, and the obtained stability constant is quite uncertain.
as §1

[3] = system: normal human embryonal lung fibroblast cells (MRC-5); experiment: MTT antiproliferative assay; type: cell-based; details: read-out: IC50 MRC-5 benign, mean
Procedure: (§2) The in vitro antiproliferative activity of the compounds was tested in doxorubicin-sensitive Colo205 and multidrug-resistant Colo320 human colon adenocarcinoma cell lines as well as in normal human embryonal lung fibroblast cells (MRC-5) by MTT assay.
(§3) Human colonic adenocarcinoma cell lines Colo 205 doxorubicin-sensitive (ATCC-CCL-222) and Colo 320/MDR-LRP multidrug resistant over-expressing ABCB1 (MDR1)-LRP (ATCC-CCL-220.1) were purchased from LGC Promochem, Teddington, UK. The cells were cultured in an RPMI 1640 medium supplemented with 10% heat-inactivated fetal bovine serum, 2 mM L-glutamine, 1 mM Na-pyruvate, and 10 mM HEPES. The semi-adherent human colon cancer cells were detached with Trypsin-Versene (EDTA) solution for 5 min at 37 °C. An MRC-5 human embryonal lung fibroblast cell line (ATCC CCL-171) was purchased from LGC Promochem, Teddington, UK. The cells were cultured in Eagle’s minimal essential medium (EMEM, containing 4.5 g L^–1 glucose) supplemented with a non-essential amino acid mixture, a selection of vitamins, and 10% heat-inactivated fetal bovine serum. The HCT-116 colon carcinoma cells and isogenic p53-knock-out subline were a gift of Prof. Bert Vogelstein from The Johns Hopkins Oncology Center. Cells were cultured in McCoy’s 5A medium supplemented with 10% heat-inactivated fetal bovine serum and 4 mM L-glutamine. All cell lines were incubated at 37 °C, in a 5% CO2, 95% air atmosphere.
(§4) MRC-5 non-cancerous human embryonic lung fibroblast and human colonic adeno-carcinoma cell lines (doxorubicin-sensitive Colo 205 and multidrug resistant Colo 320 colonic adenocarcinoma cells) were used to determine the effect of compounds on cell growth. The effects of increasing concentrations of compounds on cell growth were tested in 96-well flat-bottomed microtiter plates. The compounds were dissolved in DMSO and stock solutions of 10 mM were prepared. These were further diluted in the appropriate cell culture medium by twofold serial dilution starting from 100 or 10 μM for the compounds. The adherent human embryonal lung fibroblast cells were cultured in 96-well flat-bottomed microtiter plates using EMEM supplemented with 10% heat-inactivated fetal bovine serum. The density of the cells was adjusted to 1 × 10^4 cells in 100 μL per well, the cells were seeded for 24 h at 37 °C, 5% CO2, then the medium was removed from the plates containing the cells, and the dilutions of compounds previously made in a separate plate were added to the cells in 200 μL. In the case of the colonic adenocarcinoma cells, the twofold serial dilutions of compounds were prepared in 100 μL of RPMI 1640, horizontally. The semi-adherent colonic adenocarcinoma cells were treated with Trypsin-Versene (EDTA) solution. They were adjusted to a density of 1 × 10^4 cells in 100 μL of RPMI 1640 medium and were added to each well, with the exception of the medium control wells. The final volume of the wells containing compounds and cells was 200 μL. The culture plates were incubated at 37 °C for 72 h; at the end of the incubation period, 20 μL of MTT (thiazolyl blue tetrazolium bromide, Sigma) solution (from a stock solution of 5 mg mL^–1) was added to each well. After incubation at 37 °C for 4 h, 100 μL of sodium dodecyl sulfate (SDS) (Sigma) solution (10% in 0.01 M HCI) was added to each well and the plates were further incubated at 37 °C overnight. Cell growth was determined by measuring the optical density (OD) at 540/630 nm with a Multiscan EX ELISA reader (Thermo Labsystems, Cheshire, WA, USA). […] Curves were fitted by GraphPad Prism software[57] using the sigmoidal dose–response model (comparing variable and fixed slopes). The IC50 values were obtained from at least three independent experiments. Tests in adherent HCT-116 colon carcinoma cells and an isogenic p53-knock-out subline thereof were performed in a similar manner, with 1.5 × 10^3 cells seeded in 100 μL of McCoy’s 5A medium (Sigma-Aldrich) per well. […]

[4] = set-up: method as in PMID 31125040; details: cited from earlier work
[5] = Solubility in water/DMSO 99/1; type: physicochemical
Procedure: To a solution of HL^1 (203 mg, 0.45 mmol) in isopropanol (10 mL) a solution of CuCl2·2H2O (77 mg, 0.45 mmol) in methanol (500 μL) was added. The mixture was heated at reflux for 1 h, cooled to room temperature, and allowed to stand at 4 °C overnight. The product was filtered off, washed with isopropanol (3 mL), and dried in vacuo overnight to give a red-brown powder. Yield: 245 mg. Solubility in water/DMSO 99/1: ≥11 mg mL^–1.

[6] = system: doxorubicin-sensitive Colo205 human colon adenocarcinoma cells; experiment: MTT antiproliferative assay; type: cell-based; details: for selectivity factor (SF) Colo205: IC50 MRC-5/IC50 Colo205; for IC50: MTT, 72 h
Procedure: as §2, §3, §4

[7] = system: multidrug-resistant Colo320 human colon adenocarcinoma cells; experiment: MTT antiproliferative assay; type: cell-based; details: for selectivity factor (SF) Colo320: IC50 MRC-5/IC50 Colo320; for IC50: MTT, 72 h
Procedure: as §2, §3, §4

[8] = Thermodynamic solubility, UV–vis of saturated solutions; details: water, 298 K
Procedure: The concentration of the compounds was determined by UV–vis spectrophotometry using stock solutions of the compounds with a known concentration dissolved in pure DMSO and 50% (v/v) DMSO/buffered aqueous solution for the calibration.

SMILES	Solubility in water/DMSO 99/1 [5]	selectivity factor (SF) Colo205 [6]	IC50 [6]	IC50 ([3]; 72 h)	selectivity factor (SF) Colo320 [7]	IC50 [7]	further results
C(=N\N=C1/NCc2ccccc2-c2c1[nH]c1ccccc21)/c1ccc(CN2CCOCC2)cn1 [HL^1]	–	–	–	–	–	–	pKa ([1]; 298 K, I = 0.10 M (KCl), read-out: pKa2): 4.53 ± 0.02; pKa ([1]; 298 K, I = 0.10 M (KCl), read-out: pKa3): 5.65 ± 0.02; log β [CuH(HL^1)]^3+ [2]: 12.38 ± 0.01; log β [CuH(L^1)]^2+ [2]: 8.57 ± 0.01; IC50 ([3]; Homo sapiens, MRC5, 72 h): 3020 nM
CC(=NN=C1NCc2ccccc2-c2c1[nH]c1ccccc21)c1ccccn1 [HL^3nm]	–	–	–	–	–	–	log β (copper(II) complexes of HL^3nm) [4]: 6.39; log β [Cu(HL^3nm)]^2+ [4]: 10.96
C(=NNC1=NCc2ccccc2-c2c1[nH]c1ccccc21)c1ccc(CN2CCOCC2)cn1.[Cl][Cu][Cl] [compound 1, CuCl2(HL^1)·H2O]	≥ 11 mg mL^–1	1.33	1420 nM	1900 nM	0.83	2290 nM	pKa [CuH(HL^1)]^3+ ([1]; 298 K, I = 0.10 M (KCl)): 3.81; pKa [CuH(L^1)]^2+ ([1]; overlapping species (footnote a)): 5.71
Brc1ccc2[nH]c3c(c2c1)-c1ccccc1CN=C3NN=Cc1ccc(CN2CCOCC2)cn1.[Cl][Cu][Cl] [compound 2, CuCl2(HL^2)·2H2O]	≥ 14 mg mL^–1	2.01	2740 nM	5520 nM	1.73	3190 nM	–
CC(=NNC1=NCc2ccccc2-c2c1[nH]c1ccccc21)c1ccc(CN2CCOCC2)cn1.[Cl][Cu][Cl] [compound 3, CuCl2(HL^3)·0.2C3H7OH·0.3H2O]	≥ 10 mg mL^–1	1.80	230 nM	413 nM	1.23	335 nM	Thermodynamic solubility (S) ([8]; pH 5, 20 mM MES buffer): 63.4 µM; Thermodynamic solubility (S) ([8]; pH 7.4, 20 mM HEPES): 6.0 µM
